Laboratory results from ChEMBL document CHEMBL5360639, “Cannabidiol Analogue CIAC001 for the Treatment of Morphine-Induced Addiction by Targeting PKM2” (J Med Chem, 2023).
The source made the active and inactive calls. No cut-off for these calls is given here.

Tests used:
BV-2 [1] = experiment: Anti-neuroinflammatory activity in mouse BV-2 cells assessed as inhibition of LPS-induced NO production incubated for 24 hrs by microplate reader analysis; type: functional, cell-based; settings: BV-2, 24 h
[2] = Therapeutic index, ratio of IC50 for cytotoxicty against mouse BV-2 cells assessed as reduction in cell viability by crystal violet staining based assay to IC50 for nti-neuroinflammatory activity in mouse BV-2 cells assessed as inhibition of LPS-induced NO production; type: toxicity; settings: read-out: Ratio IC50
[3] = Cytotoxicity against mouse BV-2 cells assessed as reduction in cell viability by crystal violet staining based assay; type: toxicity
BV-2 [4] = experiment: Anti-neuroinflammatory activity in LPS-induced mouse BV-2 cells assessed as reduction in […] mRNA expression by qRT-PCR analysis; type: functional, cell-based; settings: dose 1-10 µM
BV-2 [5] = experiment: Anti-neuroinflammatory activity in LPS-induced mouse BV-2 cells assessed as reduction in IL-1beta mRNA expression at 10 uM incubated for 24 hrs by qRT-PCR analysis; type: functional, cell-based
Pyruvate kinase PKM = Pyruvate kinase PKM (Mus musculus, UniProt P52480); experiment: Binding affinity to PKM2 in mouse BV-2 cells by Western blot analysis; type: cell-based
Sequence of Pyruvate kinase PKM (P52480 whole entry): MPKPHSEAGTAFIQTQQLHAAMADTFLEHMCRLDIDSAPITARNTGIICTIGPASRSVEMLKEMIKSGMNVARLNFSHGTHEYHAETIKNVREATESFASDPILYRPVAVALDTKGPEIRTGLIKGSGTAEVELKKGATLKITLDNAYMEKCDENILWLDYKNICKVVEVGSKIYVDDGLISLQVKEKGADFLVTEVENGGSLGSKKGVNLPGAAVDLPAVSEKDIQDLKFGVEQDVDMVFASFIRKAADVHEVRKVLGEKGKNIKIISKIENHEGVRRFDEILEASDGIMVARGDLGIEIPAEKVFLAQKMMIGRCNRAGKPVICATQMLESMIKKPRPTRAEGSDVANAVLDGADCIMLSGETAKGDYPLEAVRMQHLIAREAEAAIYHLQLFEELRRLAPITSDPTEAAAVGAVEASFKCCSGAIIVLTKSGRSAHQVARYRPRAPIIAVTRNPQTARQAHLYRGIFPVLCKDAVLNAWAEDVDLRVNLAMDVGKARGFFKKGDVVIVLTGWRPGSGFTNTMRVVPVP

[6] = Toxicity in BALB/c mouse assessed as effect on respiratory rate at 20 mg/kg, ip measured on day 2 and 5; type: organism-based; settings: in vivo, 120 h, time 5 day
BV-2 [7] = experiment: Inhibition of LPS-induced LDH release in mouse BV-2 cells at 10 uM incubated for 6 hrs; type: functional, cell-based
BV-2 [8] = experiment: Anti-neuroinflammatory activity in LPS-induced mouse BV-2 cells assessed as reduction in iNOS mRNA expression at 10 uM incubated for 24 hrs by qRT-PCR analysis; type: functional, cell-based
[9] = molecular target: Pyruvate kinase PKM (Mus musculus) (UniProt P52480); experiment: Activation of PKM2 in mouse BV-2 cells assessed as increase in ATP level at 10 uM measured for 6 hrs; type: cell-based; settings: filed as activator
Sequence of Pyruvate kinase PKM (Mus musculus) (P52480 whole entry): as above

Mus musculus [10] = experiment: Anti-neuroinflammatory activity in morphine-induced BALB/c mouse assessed as […] in locomotor activity 0.2 mg/kg, ip administered once daily for 7 days and measured after 60 mins; type: functional, organism-based; settings: time 169.0 hrs
Mus musculus [11] = experiment: Anti-neuroinflammatory activity in morphine-induced BALB/c mouse assessed as inhibition of Iba1 expression in mPFC region 0.2 mg/kg, ip; type: functional, organism-based
Mus musculus [12] = experiment: Anti-neuroinflammatory activity in morphine-induced BALB/c mouse assessed as inhibition of behavioral sensitization at 0.2 mg/kg, ip administered once daily for 7 days; type: functional, organism-based; settings: time 7.0 day
[13] = Toxicity in BALB/c mouse assessed as effect on rubbing behavior at 20 mg/kg, ip measured administered once daily for 7 days and measured after 24 hrs by open field test; type: organism-based; settings: in vivo, 192 h
BV-2 [14] = experiment: Inhibition of LPS-induced LDHA mRNA overexpression in mouse BV-2 cells at 10 uM incubated for 6 hrs; type: functional, cell-based
[15] = molecular target: Pyruvate kinase PKM (Mus musculus) (UniProt P52480); experiment: Binding affinity to PKM2 in mouse BV-2 cells assessed as thermal stabilization by measuring change in melting temperature incubated for 2 hrs by Western blot analysis; type: cell-based
Mus musculus [16] = experiment: Anti-neuroinflammatory activity in morphine-induced BALB/c mouse assessed as inhibition of IL-1beta expression in mPFC region 0.2 mg/kg, ip; type: functional, organism-based
Mus musculus [17] = experiment: (§1) Anti-neuroinflammatory activity in naloxone precipitated morphine-induced ip dosed BALB/c mouse assessed as reduction in naloxone precipitated withdrawal jumps administered with morphine 3 times daily for 3 days and on day 4 for 3 hrs prior to compound addition for 30 mins before naloxone addition and measured after 15 mins; type: functional, organism-based; settings: dose 0.2-20 µg/kg, time 45.0 min
[18] = Tmax in BALB/c mouse brain at 10 mg/kg, po measured upto 4 hrs by mS-HPLC analysis; type: ADME, organism-based
[19] = AUC (0 to t) in BALB/c mouse at 10 mg/kg, po measured upto 4 hrs by mS-HPLC analysis; type: ADME, organism-based; settings: in vivo
[20] = Cmax in BALB/c mouse at 10 mg/kg, po measured upto 4 hrs by mS-HPLC analysis; type: ADME, organism-based; parameters: time < 4 hrs, dose 10 mg/kg, route po; settings: in vivo
Mus musculus [21] = experiment: Anti-neuroinflammatory activity in morphine-induced BALB/c mouse assessed as inhibition of IL-1beta expression in VTA region 0.2 mg/kg, ip; type: functional, organism-based
[22] = molecular target: Pyruvate kinase PKM (Mus musculus) (UniProt P52480); experiment: Competitive inhibition of CIAC001-P2 probe binding to PKM2 in mouse BV-2 cells at 20 uM pretreated for 2 hrs followed by UV light treatment and measured after 30 mins by silver staining based Streptavidin-pull down assay; type: cell-based; settings: time 2.5 hrs
BV-2 [23] = experiment: Anti-neuroinflammatory activity in LPS-induced mouse BV-2 cells assessed as reduction in TNF-alpha mRNA expression by qRT-PCR analysis; type: functional, cell-based; settings: dose 1-10 µM
BV-2 [24] = experiment: Anti-neuroinflammatory activity in LPS-induced mouse BV-2 cells assessed as formation of amoeboid-shaped cells at 10 uM incubated for 24 hrs by inverted microscopic analysis; type: functional, cell-based
[25] = Toxicity in BALB/c mouse assessed as assessed as effect on body weight at 20 mg/kg, ip measured administered once daily for 7 days and; type: organism-based; settings: in vivo, 168 h, time 7 day
BV-2 [26] = experiment: Inhibition of LPS-induced nuclear translocation in mouse BV-2 cells incubated for 6 hrs by Western blot analysis; type: functional, cell-based
BV-2 [27] = experiment: Inhibition of LPS-induced PKM2 monomer in mouse BV-2 cells at 10 uM; type: functional, cell-based
[28] = Toxicity in BALB/c mouse assessed as effect on locomotor activity at 20 mg/kg, ip measured administered once daily for 7 days and measured after 24 hrs by open field test; type: organism-based; settings: in vivo, 192 h
Mus musculus [29] = experiment: Inhibition of morphine-induced Hif-1alpha overexpression in BALB/c mouse at 0.2 mg/kg, ip measured for 7 days; type: functional, organism-based; settings: time 7.0 day
[30] = Toxicity in BALB/c mouse assessed as cognitive impairment by measuring time spent on new arm at 20 mg/kg, ip administered once daily for 3 days and measured after 45 mins by Y maze test; type: organism-based; settings: in vivo, 72.75 h, time 4365 min
[31] = Toxicity in BALB/c mouse assessed as effect on grooming behavior at 20 mg/kg, ip measured administered once daily for 7 days and measured after 24 hrs by open field test; type: organism-based; settings: in vivo, 192 h
[32] = MRT in BALB/c mouse at 10 mg/kg, po measured upto 4 hrs by mS-HPLC analysis; type: ADME, organism-based; settings: in vivo
[33] = Ratio of drug concentration in blood to plasma in BALB/c mouse at 10 mg/kg, po measured at 3 hrs; type: ADME, organism-based; settings: in vivo
BV-2 [34] = experiment: Inhibition of LPS-induced PKM2 tetramer in mouse BV-2 cells at 10 uM; type: functional, cell-based
[35] = Toxicity in BALB/c mouse assessed as rewarding effect at 20 mg/kg, ip measured after 6 days by CPP analysis; type: organism-based; settings: in vivo, 144 h, time 6 day
[36] = Tmax in BALB/c mouse plasma at 10 mg/kg, po measured upto 4 hrs by mS-HPLC analysis; type: ADME, organism-based
Mus musculus [37] = experiment: Anti-neuroinflammatory activity in morphine-induced BALB/c mouse assessed as inhibition of IL-1beta expression in NAc region 0.2 mg/kg, ip; type: functional, organism-based
[38] = Half life in BALB/c mouse at 10 mg/kg, po measured upto 4 hrs by mS-HPLC analysis; type: ADME, organism-based; settings: in vivo
BV-2 [39] = experiment: Anti-neuroinflammatory activity in LPS-induced mouse BV-2 cells assessed as reduction in IL-6 mRNA expression by qRT-PCR analysis; type: functional, cell-based; settings: dose 1-10 µM
[40] = molecular target: Pyruvate kinase PKM (Mus musculus) (UniProt P52480); experiment: Competitive inhibition of CIAC001-P1 probe binding to PKM2 in mouse BV-2 cells at 20 uM pretreated for 2 hrs followed by UV light treatment and measured after 30 mins by silver staining based Streptavidin-pull down assay; type: cell-based; settings: time 2.5 hrs
BV-2 [41] = experiment: Anti-neuroinflammatory activity in LPS-induced mouse BV-2 cells assessed as reduction in […] mRNA expression at 10 uM incubated for 24 hrs by qRT-PCR analysis; type: functional, cell-based
[42] = molecular target: Pyruvate kinase PKM (Mus musculus) (UniProt P52480); experiment: Binding affinity to PKM2 in mouse BV-2 cells at 20 uM by Western blot analysis; type: cell-based
Mus musculus [43] = experiment: Anti-neuroinflammatory activity in morphine-induced BALB/c mouse assessed as decrease in conditioned place preference behavior 0.2 mg/kg, ip pretreated for 6 days followed by morphine induction and measured on days 5 to 9 days; type: functional, organism-based; settings: time 11-15 day
[44] = molecular target: Cannabinoid receptor (Homo sapiens) (UniProt P34972+P21554); experiment: Agonist activity at CB1/CB2 (unknown origin) receptor expressed in HEK293 cells assessed as inhibition of forskolin-stimulated cAMP accumulation incubated for 2 hrs by microplate reader analysis; type: functional, cell-based; settings: filed as agonist
Sequence of Cannabinoid receptor (Homo sapiens) (P21554 whole entry, looked up): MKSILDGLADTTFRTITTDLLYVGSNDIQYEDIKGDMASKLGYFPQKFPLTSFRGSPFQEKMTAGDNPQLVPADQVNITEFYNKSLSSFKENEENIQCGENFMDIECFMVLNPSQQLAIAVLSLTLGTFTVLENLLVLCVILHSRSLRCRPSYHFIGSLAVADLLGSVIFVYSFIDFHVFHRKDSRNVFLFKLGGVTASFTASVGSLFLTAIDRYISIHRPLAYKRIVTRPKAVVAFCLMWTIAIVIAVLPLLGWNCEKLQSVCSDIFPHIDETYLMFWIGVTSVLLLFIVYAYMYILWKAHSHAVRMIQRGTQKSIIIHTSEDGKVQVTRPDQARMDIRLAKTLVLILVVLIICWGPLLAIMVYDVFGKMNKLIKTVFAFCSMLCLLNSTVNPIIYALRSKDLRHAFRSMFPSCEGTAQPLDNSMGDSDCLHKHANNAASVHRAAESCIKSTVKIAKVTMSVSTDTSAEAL
Sequence of Cannabinoid receptor (Homo sapiens) (P34972 whole entry, looked up): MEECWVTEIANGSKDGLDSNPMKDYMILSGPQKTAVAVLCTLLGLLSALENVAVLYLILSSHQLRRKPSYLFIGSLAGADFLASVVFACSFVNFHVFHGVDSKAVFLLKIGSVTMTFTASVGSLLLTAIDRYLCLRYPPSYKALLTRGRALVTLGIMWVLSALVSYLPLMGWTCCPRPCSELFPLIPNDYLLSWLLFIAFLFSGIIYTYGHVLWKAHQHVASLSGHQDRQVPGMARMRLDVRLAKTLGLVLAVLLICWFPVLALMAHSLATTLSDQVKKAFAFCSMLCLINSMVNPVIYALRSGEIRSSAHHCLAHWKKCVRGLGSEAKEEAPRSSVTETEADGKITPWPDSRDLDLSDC

[45] = molecular target: Pyruvate kinase PKM (Mus musculus) (UniProt P52480); experiment: Binding affinity to PKM1 in mouse BV-2 cells at 20 uM by Western blot analysis; type: cell-based
BV-2 [46] = experiment: Anti-neuroinflammatory activity in LPS-induced mouse BV-2 cells assessed as reduction in TNF-alpha mRNA expression at 1 to 10 uM by qRT-PCR analysis; type: functional, cell-based; settings: dose 1-10 µM
BV-2 [47] = experiment: Anti-neuroinflammatory activity in LPS-induced mouse BV-2 cells assessed as reduction in IL-6 mRNA expression at 1 to 10 uM by qRT-PCR analysis; type: functional, cell-based; settings: dose 1-10 µM
Mus musculus [48] = experiment: as §1, with “morphine-induced” for “morphine-induced ip dosed”, “jumps at 0.2 microg/kg, ip” for “jumps”; type: functional, organism-based; settings: dose 0.2 µg/kg, time 45.0 min
BV-2 [49] = experiment: Anti-neuroinflammatory activity in LPS-induced mouse BV-2 cells assessed as reduction in IL-1beta mRNA expression at 10 uM by qRT-PCR analysis; type: functional, cell-based

C=C(C)[C@@H]1CCC(C)=C[C@H]1c1c(O)cc(CCC)cc1O [CANNABIDIVARIN]
IC50 (BV-2 [1]): 5.3 µM | selectivity ratio [2]: 3.5 | IC50 [3]: 18.3 µM

C=C(C)[C@@H]1CCC(C)=C[C@H]1c1c(OCCC)cc(CCCCC)cc1OCCC
IC50 [3]: > 200 µM

C=C(C)[C@@H]1CCC(C)=C[C@H]1c1c(O)cc(C(C)n2nccn2)cc1O (stereo not given in full)
Activity (BV-2 [4]): Dose-Dependent Effect | Activity (BV-2 [5]): Active | Kd (Pyruvate kinase PKM): 2.2 µM | Activity [6]: Non-Toxic | IC50 (BV-2 [1]): 2.5 µM | inhibition (BV-2 [7]): Active | Activity (BV-2 [8]): Active | Activity [9]: Active | Activity (Mus musculus [10]): Active | Activity (Mus musculus [11]): Active | Activity (Mus musculus [12]): Active | Activity [13]: Non-Toxic | inhibition (BV-2 [14]): Active | ΔTm [15]: 3.9 °C | Activity (Mus musculus [16]): Active | Activity (Mus musculus [17]): Dose-Dependent Effect | Tmax [18]: 30 min | AUCt [19]: 172.8 ng·h/g | Cmax [20]: 175 ng/g | Activity (Mus musculus [21]): Active | inhibition [22]: Active | Activity (BV-2 [23]): Dose-Dependent Effect | Activity (BV-2 [24]): Active | Activity [25]: Non-Toxic | inhibition (BV-2 [26]): Active | inhibition (BV-2 [27]): Active | Activity [28]: Non-Toxic | inhibition (Mus musculus [29]): Active | Activity [30]: Non-Toxic | Activity [31]: Non-Toxic | MRT [32]: 54 min | Ratio [33]: < 200% | inhibition (BV-2 [34]): Active | Activity [35]: Non-Toxic | Tmax [36]: 18 min | Activity (Mus musculus [37]): Active | half-life [38]: 48 min | selectivity ratio [2]: 23.1 | Activity (BV-2 [39]): Dose-Dependent Effect | inhibition [40]: Active | Activity (BV-2 [41]): Active | IC50 [3]: 57.8 µM | Activity [42]: Active | Activity (Mus musculus [43]): Active | Activity [44]: Active | Activity [45]: Active

C=C(C)[C@@H]1CCC(C)=C[C@H]1c1c(O)cc(CCCCC)cc1O [CANNABIDIOL]
IC50 (BV-2 [1]): 12.3 µM | Activity (Mus musculus [10]): inactive | Activity (Mus musculus [12]): inactive | Activity (BV-2 [46]): inactive | Activity (BV-2 [47]): inactive | AUCt [19]: 66.7 ng·h/g | Cmax [20]: 98.1 ng/g | Activity (Mus musculus [48]): inactive | Activity (BV-2 [49]): inactive | MRT [32]: 42 min | Ratio [33]: < 100% | half-life [38]: 30 min | selectivity ratio [2]: 0.7 | IC50 [3]: 8.5 µM

C#CCOc1cc(CCCCC)cc(O)c1[C@@H]1C=C(C)CC[C@H]1C(=C)C
IC50 (BV-2 [1]): 99.6 µM | selectivity ratio [2]: 1.2 | IC50 [3]: 65 µM

C=C(C)[C@@H]1CCC(C)=C[C@H]1c1c(O)cc(CCCCC)cc1OC
IC50 (BV-2 [1]): 37.2 µM | selectivity ratio [2]: 1.6 | IC50 [3]: 58.2 µM
